The source of these data is US20170333391A1, “METHOD FOR DELAYING THE ONSET OF PULMONARY FIBROSIS OR TREATING PULMONARY FIBROSIS” (EVERFRONT BIOTECH INC., priority 2016, published 2017).

In one experiment the test system is TGF-β protein. Nature of the experiment: TGF-β protein expression in TGF-β1-induced NHLF, western blotting (Example 4). It is filed as cell-based, human. Conditions: uninduced control = 1, TGF-β1-only group A = 1.75. The method, then: Normal Human lung fibroblasts (NHLF) were seeded into 6 cm culture dishes at a density of 2×10^5 cells/dish, comprising a control group and five experimental groups (6 dishes in total). The cells were cultured until the next day, and then the mediums were removed. Each group was respectively treated under the following conditions to conduct follow-up experiments: • (1) Control group: cells were cultured in a FGM-2 medium containing 1% serum for 36 hours; • (2) Group A: cells were cultured in a FGM-2 medium containing 1% serum and TGF-β1 (5 ng/ml) for 36 hours; • (3) Group B: cells were firstly cultured in a FGM-2 medium containing 1% serum and TGF-β1 (5 ng/ml) for 12 hours, and then compound (1) was added into the medium to provide a final concentration of 15 μg/ml; thereafter, the cells were cultured for another 24 hours; • (4) Group C: cells were firstly cultured in a FGM-2 medium containing 1% serum and TGF-β1 (5 ng/ml) for 12 hours, and then compound (1) was added into the medium to provide a final concentration of 30 μg/ml; thereafter, the cells were cultured for another 24 hours; • (5) Group D: cells were firstly cultured in a FGM-2 medium containing 1% serum and TGF-β1 (5 ng/ml) for 12 hours, and then compound (2) was added into the medium to provide a final concentration of 100 μg/ml; thereafter, the cells were cultured for another 24 hours; and • (6) Group E: cells were firstly cultured in a FGM-2 medium containing 1% serum and TGF-β1 (5 ng/ml) for 12 hours, and then compound (2) was added into the medium to provide a final concentration of 200 μg/ml; thereafter, the cells were cultured for another 24 hours.
Thereafter, the proteins in the cells of each group were extracted, and the expressions of BMP-7 protein, TGF-β protein and p-smad2/3 protein in the NHLF cells of each group were measured with western blotting. The results of the control group served as the basis for calculating the relative expression levels of the other groups.
(In general: A western blot detects proteins with antibodies after separation by electrophoresis.)

Experiment [1] concerns C57B/L6 mice injected with Bleomycin sulfate (inducer of pulmonary fibrosis). Kind of experiment: Pulmonary fibrosis score (Ashcroft, 0 to 8) in Bleomycin sulfate mice. The class given is in vivo. The settings on record: compared to oil group. The procedure:
(§1) 24 C57B/L6 mice (age: four weeks) were separated into four groups (6 mice in each group). […]
After completing the measurement of the pulmonary function in Example 6, the mice were sacrificed. […] One of the two groups was preserved at −20° C. for the follow-up experiment, and the other group was analyzed by hematoxylin-sosin stain (H&E stain). […]

Another experiment deals with surfactant C. Nature of the experiment: surfactant C in mouse pulmonary tissue, western blotting. The class given is in vivo, mice. The settings on record: compared to oil group. The method, then:
as §1
The samples of mice pulmonary tissue provided by Example 7 and preserved at −20° C. were removed from storage, and then ground in liquid nitrogen. […] The expressions of TGF-β protein, smad3 protein and surfactant C in the samples of each group were measured with western blotting, wherein the actin served as an internal control.

Another experiment concerns IL-β. Kind of experiment: IL-β mRNA in mouse pulmonary tissue, RT-PCR. It is filed as in vivo, mice. Conditions: Bleomycin sulfate, normal control = 1, oil group = 2.34.
Description: as §1
Then, for another portion of ground samples of each group, the total RNAs were extracted using an RNeasy Mini Kit. The QuantiTect Reverse Transcription Kit was used to conduct reverse transcription on the total RNA to obtain the cDNA. […]

Setting [2] is: High-dose group, compound (1) 50 mg/kg orally daily 30 days.
Where [3] appears, read: Low-dose group, compound (1) 10 mg/kg orally daily 30 days.

`CCCC=C1OC(=O)c2ccccc21` [compound (1)]: the “Relative expression level (fold) TGF-β protein” value is listed as 1.27 fold in the experiment on TGF-β protein (Group B: TGF-β1 5 ng/ml 12 h, then compound (1) 15 μg/ml 24 h) and 1.34 fold with TGF-β protein (Group C: TGF-β1 5 ng/ml 12 h, then compound (1) 30 μg/ml 24 h). Further, the pulmonary fibrosis score result in experiment [1] (setting [2]) and in experiment [1] (setting [3]) was “significantly decreased” in each case. Also, the “expression level of surfactant C in pulmonary tissue” value in the experiment on surfactant C (setting [2]) and in the experiment on surfactant C (setting [3]) was “significantly higher” each time. Moreover, the “Relative expression level (fold) IL-β” value was determined as 0.52 fold with IL-β (High-dose group: mRNA in pulmonary tissue, compound (1) 50 mg/kg-body weight orally every day for 30 days) and 1.02 fold in the experiment with IL-β (Low-dose group: mRNA in pulmonary tissue, compound (1) 10 mg/kg-body weight orally every day for 30 days).
